What was measured:
Settings in all cases: 72 h
HL-60 [1] = assay: area under dose-response curve (viability, 1 nM-10 uM) (fraction (0-1)); higher = more sensitive
Procedure, shortened: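 In 384-well plates, the full library was rescreened in duplicate on HL-60 cells in RPMI 1640 with 10% FBS, at 1–10,000 nM in five tenfold concentrations, for 72 h at 37 °C, 5% CO2. Each run also held DMSO or 100 nM of one of three metabolic inhibitors. Viability was measured by CellTiter-Glo and normalised to DMSO wells and to wells with proteasome inhibitor, present at 10 μM. Any area under the curve comes from four-parameter log-logistic fitting with drc and PharmacoGx.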

KU-812 = assay: cell viability (% survival relative to DMSO control, bortezomib = 0%); higher = less cytotoxic
Procedure, shortened: (§1)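 Fifteen myeloid leukaemia cell lines (10 AML, 5 CML) were seeded at a density titrated to the linear growth range. They went into 384-well plates with compounds pre-printed at 1, 10, 100, 1000 or 10000 nM in duplicate. After 72 h at 37 °C with 5% CO2, viability was read by CellTiter-Glo luminescence. Values are percent survival, with vehicle set to 100% and a 10 µM positive control to 0%, averaged over the duplicates.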

HL-60 [2] = assay: as above
Procedure, shortened: as §1

KG-1 = assay: as above
Procedure, shortened: as §1

[3] = co-treatment: GSK2194069 100 nM
[4] = co-treatment: pictilisib 100 nM

Compound | area under dose-response curve (HL-60 [1]; co-treatment: AZD3965 100 nM) | area under dose-response curve (HL-60 [1]; co-treatment: DMSO vehicle) | area under dose-response curve (HL-60 [1]; [3]) | area under dose-response curve (HL-60 [1]; [4]) | cell viability (KU-812; 1 nM) [%] | cell viability (KU-812; 10 nM) [%] | cell viability (KU-812; 100 nM) [%] | cell viability (KU-812; 1000 nM) [%] | cell viability (KU-812; 10000 nM) [%] | cell viability (HL-60 [2]; 1 nM) [%] | cell viability (HL-60 [2]; 10 nM) [%] | cell viability (HL-60 [2]; 100 nM) [%] | cell viability (HL-60 [2]; 1000 nM) [%] | cell viability (HL-60 [2]; 10000 nM) [%] | cell viability (KG-1; 1 nM) [%] | cell viability (KG-1; 10 nM) [%] | cell viability (KG-1; 100 nM) [%] | cell viability (KG-1; 1000 nM) [%] | cell viability (KG-1; 10000 nM) [%]
CCOC(=O)[C@@]1(CCCCCCOc2ccc(Cl)cc2)CO1 [Etomoxir] | < 0.0301 | < 0.0301 | < 0.0301 | < 0.0301 | 91.3 | 110 | 93.5 | 82.7 | 60.8 | 77.7 | 74.7 | 83.3 | 98.5 | 69.5 | 94.3 | 99.8 | 112 | 94.5 | 91.1
Cc1c(-c2ccccc2)oc2c(C(=O)OCCN3CCCCC3)cccc2c1=O.Cl [Flavoxate] | < 0.0301 | < 0.0301 | < 0.0301 | < 0.0301 | 92.2 | 110 | 111 | 99 | 99.2 | 89.2 | 121 | 90.7 | 102 | 103 | 94.7 | 108 | 94.8 | 97 | 106
O=C(O)CCc1ccc(NCc2cccc(Oc3ccccc3)c2)cc1 [GW9508] | < 0.0301 | < 0.0301 | < 0.0301 | < 0.0301 | 89.2 | 92.4 | 101 | 98.8 | 99.3 | 90 | 94.3 | 104 | 103 | 83.5 | 90.6 | 101 | 96.8 | 108 | 107
CC(C(=O)O)C(=O)O [Methylmalonate] | – | – | – | – | 90.1 | 93.7 | 97 | 90.5 | 85.6 | 84.9 | 104 | 92.2 | 116 | 90.1 | 92.5 | 90.8 | 91.2 | 88.9 | 88.4
COc1cc2c(NC3CCN(C)CC3)nc(N3CCCN(C)CC3)nc2cc1OCCCN(C)C [UNC0224] | – | – | – | – | 98.7 | 107 | 89.8 | 106 | 79.5 | 92.3 | 123 | 97.8 | 89.5 | 65.1 | 102 | 117 | 94.1 | 96.8 | 108
CC(C)C[C@H](NC(=O)[C@@H](O)[C@H](N)Cc1ccccc1)C(=O)O [Ubenimex] | – | – | – | – | 110 | 109 | 97.8 | 97.4 | 115 | 98.3 | 124 | 98.7 | 77.9 | 97 | 111 | 105 | 98.9 | 92.2 | 88.9
O=P(O)(O)C(O)(Cn1ccnc1)P(=O)(O)O [Zoledronic acid] | – | – | – | – | 96.1 | 95.7 | 95.9 | 94.6 | 92.7 | 84.3 | 111 | 105 | 98.3 | 111 | 99.3 | 106 | 111 | 103 | 108
